# According to patent publication US20250011715A1, “METHOD FOR PRODUCING INNER EAR STRIA VASCULARIS MARGINAL CELLS, CHEMICAL AGENT ASSESSMENT METHOD, AND CELL CULTURE FOR ASSESSING CHEMICAL AGENT” (THE KITASATO INSTITUTE, priority 2021, published 2025):
# How the values were obtained:
# [1] = tested on: inner ear stria vascularis marginal cells (cell mass after suspension culture) from human iPS cells; conditions: HBSS containing 2 mM EDTA, on ice 15 minutes, 4 kDa FITC-Dextran 2 mg/mL, Day 61, versus EDTA non-treatment; FIG. 18
# Protocol: The inner ear progenitor cells were obtained from human iPS cells by the same method as in Test Example 1, and suspension culture was continued until the 49th day (Day 61) after the start of the suspension culture by the same method as in Test Example 2 using the inner ear progenitor cells.
# For the obtained cells, a barrier function assay was performed. Specifically, the culture after the suspension culture was put into a microtube having a volume of 1.5 mL for each cell, and centrifuged, the culture medium was discarded, and 0.5 mL of HBSS containing 2 mM EDTA was added. In addition, as a control, a sample to which HBBS containing no EDTA was added was also prepared under the same conditions. Each of the samples was placed on ice for 15 minutes, and then 4 kDa FITC-Dextran was added to each of the samples to a concentration of 2 mg/mL, and the samples were suspended and immediately observed with a confocal microscope.
# OTX2 gene = OTX2 gene expression by qPCR during differentiation induction into inner ear stria vascularis marginal cells; assay type: cell-based, human; conditions: Day 60; insulin-free medium (N21-Ins) versus B27+N2 medium and insulin-free medium with 1.5 μM insulin added from Day 20; FIG. 17
# Protocol: The differentiation from human iPS cells into inner ear progenitor cells was induced by the same method as in Test Example 1, the cells on the 12th day (Day 12) from the start of the differentiation induction were detached off with Accutase, an equal amount of PBS was added thereto, the cells were passed through a nylon mesh (pore size: 40 μm), and the number of cells was counted with a hemocytometer.
# The cells were suspended to a concentration of 5×10^5 cells/10 mL and seeded in a low adhesion 6-well plate (trade name “Corning Ultra-Low Attachment Plate”, Corning Inc.), and suspension culture was started under low oxygen conditions (4% of O2, 5% of CO2). […]
# In any of the above Conditions 1) to 3), the cells on the 48th day (Day 60) after the start of the suspension culture were collected, and the expression level of the OTX2 gene, which is known to be expressed on the Reissner's membrane, which is an inner ear organ, and known to be poorly expressed in the inner ear stria vascularis marginal cells, was quantified by qPCR in the same manner as in Test Example 1.
compound,measurement,setting,value
O=C(O)CN(CCN(CC(=O)O)CC(=O)O)CC(=O)O [EDTA],barrier function between cells (transfer of FITC-Dextran to the inside of the cell mass),[1],calcium-dependent barrier function was impaired
insulin,expression level of OTX2,OTX2 gene,low in a case where the culture medium did not contain insulin as compared with a case where insulin was contained in the culture medium
